The values below come from patent US20020150582A1, “Method of treating or inhibiting cellular injury or cell death” (priority 2001, published 2002).

Marks after values point to notes of the source that are not given here.

For one data set, the system named is TNF. In words: Serum TNF (ELISA) in open chest rats undergoing myocardial ischemia. The data set is classed as in vivo, rat. The note with it: for serum concentration of TNF: mean ± sem. On the procedure: (§1) Male Sprague-Dawley rats weighing 505±5 g were anesthetized with sodium pentobarbital (50 mg/kg I.P.). An endotracheal tube was secured in place and connected to a small-animal respirator (Harvard Apparatus, Model 683, South Natick, Mass.) set on 100 breaths/min, with a tidal volume of 2-3 mnL/breath. Body temperature was maintained using a heating pad with circulating warm water (K-model 100, Baxter Laboratories). A left thoracotomy was performed, the heart exposed and the pericardium removed. Left ventricular pressure was measured using a saline-filled polyethylene catheter attached to an angiocatheter (20 Gauge) inserted through the apex of the heart and connected to a P23 ID Statham/Gould pressure transducer. Arterial pressure was monitored via a saline-filled polyethylene catheter (PE 50) introduced into the left carotid artery. The right jugular vein was also cannulated with a polyethylene catheter (PE 50) for IV drug infusions and volume repletion (0.9% NaCl). Subcutaneous needles were positioned in the limbs for ECG recordings.
(§2) In the second test procedure, the main coronary artery of rats undergoing coronary occlusion was located and occluded close to its origin using a 5-0 suture passed underneath the vessel that could be tightened over a short section of PE tubing (PE 20) to initiate regional ischemia. Reperfusion was reinstated by removing the short segment of PE tubing.
Blood samples were collected in syringes in the absence of any anticoagulant and immediately placed in Microtainer® serum separator tubes (Becton Dickinson) and centrifuged at 2000 g for 6 minutes. The serum was removed, frozen immediately, and stored at −20° C. until the analysis could be performed. The concentration of serum TNF collected at preselected time points was determined for individual rats by enzyme-linked immunosorbent assay (ELISA), utilizing the Factor-Test-X (Genzyme Inc, Cambridge, Mass., Cat #80-3905-01) according to the manufacturer's instructions. Briefly, 100 μL of serum was diluted 1:2 in 0.1% bovine serum albumin/phosphate buffered saline and added in duplicate to a 96-well microtiter plate. A standard curve was generated by plotting the concentrations of rat TNF standards versus their absorbances. […] The detection limit of this assay was 10 pg/mL. Additionally, the manufacturer has determined that this ELISA is highly specific for rat TNF.

For data set [1], the system named is open chest rats undergoing myocardial ischemia/reperfusion. In words: Survival of open chest rats undergoing myocardial ischemia/reperfusion (second test procedure). The data set is classed as in vivo, rat. The note with it: for percent survival: 3 mg/kg iv.
The test system is the same in data set [2]. In words: Determination of infarct size (TTC staining). The note with it: 3 mg/kg i.v. It is filed as in vivo, rat. Here is the method: as §2
The heart was removed and sliced in five to six coronal sections, which were immersed in 1% triphenyltetrazolium chloride (TTC) for 10-15 minutes. The heart sections were removed, blotted dry and traced onto acetate sheets. The areas of infarction were clearly demarcated by a pale appearance in the ischemic zone, and a brick red color of non-infarcted myocardium. The areas of all sections were determined by planimetric methods and infarct area was expressed as a percentage of the left ventricle.

Another data set relates to Ca+2 current (ICa-L). In words: L-type Ca2+ current recording in isolated ventricular myocytes (patch clamp). The data set is classed as cell-based, cat. On the procedure: The latter process was performed three times.
Patch-clamp current and voltage recordings were made with the ruptured patch whole-cell configuration at 36-37° C. (14). For studies on L-type Ca^2+ currents, cells were bathed with modified Tyrode's containing (in mM): 157 TEA-Cl, 5 CaCl2, 0.5 MgCl2, and 10 HEPES. Electrode internal solution contained (in mM): 10 L-Glutamic Acid, 20 CsCl, 10 EGTA, 1 MgCl2, 1 CaCl2, 20 HEPES, and 5 ATP-Mg2; pH adjusted with CsOH. In all of the studies, electrode resistance was measured to be 2-3.5 MΩ. The reference zero potential was adjusted in the bath before forming seals. Recordings were performed with an Axon Instruments 200B amplifier (Axon Instruments, Culver City, Calif. USA) interfacing a DigiData 1200 DA/AD acquisition system. Ionic currents were evoked by depolarizing voltage step (1 sec-long) from −30 to +60 mV, in 10-mV increments, from a holding potential of −40 mV delivered at the frequency of 1 Hz. Action potentials were elicited at a frequency of 1 Hz by injection of brief depolarizing current pulses. Software used in data acquisition and analysis was pClamp v.6.04 and Origin v 5.0 (Microcal Software, Northampton, Mass.).
(In general: Patch clamp records ionic current or voltage across a cell membrane.)

The subject of data set [3] is Adult human kidney proximal tubular (HK-2) cells. The note with it: HK-2 cells cultured for 0-20 hr; necrotic form of cell death; cited from earlier work.
Data set [4] deals with isolated feline ventricular myocytes. As to conditions: 25 μM, soon after exposure.
Data set [5] has as its system open chest rats in the absence of myocardial ischemia. In words: Hemodynamic parameters in open chest rats in the absence of myocardial ischemia (first test procedure). The data set is classed as in vivo, rat. As to conditions: for +dP/dt / Heart Rate / Mean BP / LVPdev: percent change from pre-drug baseline 15 minutes after drug administration. On the procedure:
as §1, with “recordings. […]” for “recordings.”

[6] abbreviates: 1.0 mg/kg iv (second dose, after 0.3 mg/kg iv).
Where [7] appears, read: following infusion (0.1+0.3 mg/kg).
[8] abbreviates: 0.1 mg/kg iv (first dose), mean ± sem.
The mark [9] stands for this setting: 0.3 mg/kg iv (second dose, after 0.1 mg/kg iv).

Etanercept: the “serum concentration of TNF” value in the data set with TNF (0 min (end of ischemia)) came to 2299 ± 357 pg/mL; in the data set with TNF (30 min reperfusion) it was 2057 ± 349 pg/mL; in the data set with TNF (60 min reperfusion) it was 1592 ± 258 pg/mL; with TNF (90 min reperfusion) it was 1108 ± 279 pg/mL; in the data set with TNF (120 min reperfusion) it was 721 ± 209 pg/mL; with TNF (150 min reperfusion), 580 ± 193 pg/mL. For the same compound, the “serum concentration of TNF” value with TNF (−30 min (baseline)) is 0 ± 0 pg/mL. In addition, the “effect on TNFα spike in concentration in response to vascular occlusion” value in the data set on TNF (at 0 minutes) was “significantly reduced”. Besides, the “mortality resulting from myocardial ischemia/reperfusion” value in data set [1] (3 mg/kg i.v. administered immediately before occlusion) is recorded as “significantly reduced mortality”. Moreover, the rats dead in data set [1] (3 mg/kg i.v., t=90 minutes of reperfusion) is on record as 1 out of 9. Moreover, the percent survival in data set [1] (0 min (end of ischemia)) was 100%; in data set [1] (30 min reperfusion), 100%; in data set [1] (60 min reperfusion), 100%; in data set [1] (90 min reperfusion) it was 89%; in data set [1] (120 min reperfusion), 89* percent; in data set [1] (150 min reperfusion), 88* percent. In addition, the percent survival in data set [1] (−30 min (baseline)) worked out at 100%. Besides, the “Infarct size, expressed as a percentage of the left ventricle” value in data set [2] is recorded as 24±3%.
As for `CCCCCCCCCCCCC/C=C/[C@@H](O)[C@@H](N)CO` [Sphingosine], the “block of ICa-L” value in the data set on Ca+2 current (ICa-L) (2.5 μM) amounted to 17±7%. In the data set on Ca+2 current (ICa-L) (25 μM), the “block of ICa-L” value was 75±4%. Besides, the “concentration inducing rapid, concentration-dependent cytotoxicity” value in data set [3] was not below 10 µM. Further, in data set [4], the “myocardial cell death (morphology, lack of viability)” value is listed as “lead to myocardial cell death”. In addition, in data set [5] (0.3 mg/kg iv (first dose)), the “+dP/dt” value is −33 ± 12%, the “Heart Rate” value is on record as −4 ± 4% and the “Mean BP” value was −24 ± 12%. For the same compound, in data set [5] (setting [6]), the “+dP/dt” value is −32 ± 18%, the “Heart Rate” value is reported as −18 ± 1%, the LVPdev is −24 ± 14% and the “Mean BP” value was −17 ± 19%. Besides, in data set [5] (setting [7]), the “+dP/dt reduced from baseline” value worked out at 33±12% and the “LVP depressed from baseline” value is reported as 24±8%.
In the case of Sphingomyelin, in data set [5] (setting [8]), the “+dP/dt” value is given as 1 ± 13%, the “Heart Rate” value was 7 ± 9%, the LVPdev was determined as 3 ± 11% and the “Mean BP” value is given as −3 ± 17%. In data set [5] (setting [9]), the “+dP/dt” value amounted to 6 ± 15%, the “Heart Rate” value is given as 8 ± 10%, the LVPdev is 4 ± 12% and the “Mean BP” value is given as 2 ± 2%.
